Patent publication US20250230193A1, “CYCLIC COMPOUND HAVING SELECTIVE KRAS INHIBITORY EFFECT ON HRAS AND NRAS” (CHUGAI SEIYAKU KABUSHIKI KAISHA, priority 2022, published 2025)
Where a SMILES comes first, the peptide text is derived from it. Bridges are numbered along the chain shown (N, C = ends). [ ]: non-standard residue; d: D form. The star is where a group is joined. hPhe(3-Cl-4-CF3) = N[C@@H](CCc1ccc(C(F)(F)F)c(Cl)c1)C(=O)O; NPrPhe(4-CF3) = CCCN[C@@H](Cc1ccc(C(F)(F)F)cc1)C(=O)O; NEtPhe(4-CF3) = CCN[C@@H](Cc1ccc(C(F)(F)F)cc1)C(=O)O; hPhe(3,4-Cl2) = N[C@@H](CCc1ccc(Cl)c(Cl)c1)C(=O)O; Pip(4,4-F2) = O=C(O)[C@@H]1CC(F)(F)CCN1; NMeGly(cPent) = CN[C@H](C(=O)O)C1CCCC1; NMeD = CN[C@@H](CC(=O)O)C(=O)O; NMeL = CN[C@@H](CC(C)C)C(=O)O; Morpholide = C1CN(*)CCO1; NMeA = CN[C@@H](C)C(=O)O; Ac5c = NC1(C(=O)O)CCCC1; Aze = O=C(O)[C@@H]1CCN1; Sar = CNCC(=O)O

Assays:
[1] = target: GDP-bound NRAS wild-type protein (Homo sapiens, UniProt P01111); experiment: Binding to NRAS by surface plasmon resonance (SPR), Single Cycle Kinetics; conditions: SPR
Chain of GDP-bound NRAS wild-type protein (P01111 whole entry): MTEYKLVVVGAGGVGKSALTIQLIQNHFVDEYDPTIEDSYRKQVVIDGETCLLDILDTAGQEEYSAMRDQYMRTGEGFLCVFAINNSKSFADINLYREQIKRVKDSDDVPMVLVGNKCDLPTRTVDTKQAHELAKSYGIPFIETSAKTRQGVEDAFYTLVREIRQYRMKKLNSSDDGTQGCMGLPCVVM

[2] = target: GDP-bound HRAS wild-type protein (Homo sapiens, UniProt P01112); experiment: Binding to HRAS by surface plasmon resonance (SPR), Single Cycle Kinetics; conditions: SPR
Chain of GDP-bound HRAS wild-type protein (P01112 whole entry): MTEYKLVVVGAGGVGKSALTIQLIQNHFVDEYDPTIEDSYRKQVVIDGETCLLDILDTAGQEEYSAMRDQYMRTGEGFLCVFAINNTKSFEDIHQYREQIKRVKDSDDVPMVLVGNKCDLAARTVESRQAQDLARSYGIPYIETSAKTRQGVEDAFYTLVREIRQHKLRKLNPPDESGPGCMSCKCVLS

[3] = GDP-bound NRAS wild-type vs GDP-bound KRAS wild-type
[4] = GDP-bound HRAS wild-type vs GDP-bound KRAS wild-type

## CCCN1C(=O)[C@@H]2CCN2C(=O)[C@H](C)N(C)C(=O)[C@H]([C@@H](C)CC)NC(=O)[C@H](CC(C)C)N(C)C(=O)C[C@@H](C(=O)N2CCOCC2)N(C)C(=O)[C@H](C2CCCC2)N(C)C(=O)C2(CCCC2)NC(=O)[C@@H]2CCCN2C(=O)[C@H](CCc2ccc(C(F)(F)F)c(Cl)c2)NC(=O)CN(C)C(=O)[C@@H]1Cc1ccc(C(F)(F)F)cc1 [PP0053] ([NMeL]I[NMeA][Aze][NPrPhe(4-CF3)][Sar][hPhe(3-Cl-4-CF3)]P[Ac5c][NMeGly(cPent)][NMeD]-Morpholide; lactam N-11)
[1]; KD ratio NRAS/KRAS
  NRAS/KRAS (ratio of KD for GDP-bound NRAS wild-type to KD for KRAS): C (A compound having a KD ratio of 0.1 or more and less than 3 is denoted as C)
[2]; KD ratio HRAS/KRAS
  HRAS/KRAS (ratio of KD for GDP-bound HRAS wild-type to KD for KRAS): C (A compound having a KD ratio of 0.1 or more and less than 3 is denoted as C)

## CCO[C@@H]1C[C@H]2C(=O)NC3(CC(C)(C)C3)C(=O)N(C)[C@@H](C(CC)CC)C(=O)N(C)[C@H](C(=O)N(C)C)CC(=O)N(C)[C@@H](CC3CCC3)C(=O)N[C@@H]([C@@H](C)CC)C(=O)N(C)CC(=O)N(C)[C@H]3C/C=C\CCN(C3=O)[C@@H](Cc3ccc(C)cc3)C(=O)N(C)CC(=O)N[C@@H](CCc3cc(F)c(C(F)(F)F)c(F)c3)C(=O)N2C1 [PP2151]
[1]; [3]
  NRAS/KRAS (ratio of KD value with respect to NRAS to KD value with respect to KRAS): A (a compound having 10 or more and less than 20 is denoted as A)
[2]; [4]
  HRAS/KRAS (ratio of KD value with respect to HRAS to KD value with respect to KRAS): A (a compound having 10 or more and less than 20 is denoted as A)

## CCCN1C(=O)[C@@H]2CCN2C(=O)[C@H](C)N(C)C(=O)[C@H]([C@@H](C)CC)NC(=O)[C@H](CC(C)C)N(C)C(=O)C[C@@H](C(=O)N2CCOCC2)N(C)C(=O)[C@H](C2CCCC2)N(C)C(=O)C2(CCCC2)NC(=O)[C@@H]2CC(F)(F)CCN2C(=O)[C@H](CCc2ccc(C(F)(F)F)c(Cl)c2)NC(=O)CN(C)C(=O)[C@@H]1Cc1ccc(C(F)(F)F)cc1 [PP0285] ([NMeL]I[NMeA][Aze][NPrPhe(4-CF3)][Sar][hPhe(3-Cl-4-CF3)][Pip(4,4-F2)][Ac5c][NMeGly(cPent)][NMeD]-Morpholide; lactam N-11)
[1]; KD ratio NRAS/KRAS
  NRAS/KRAS (ratio of KD for GDP-bound NRAS wild-type to KD for KRAS): C (A compound having a KD ratio of 0.1 or more and less than 3 is denoted as C)
[2]; KD ratio HRAS/KRAS
  HRAS/KRAS (ratio of KD for GDP-bound HRAS wild-type to KD for KRAS): B (a compound having 3 or more and less than 10 is denoted as B)

## CC[C@H](C)[C@@H]1NC(=O)[C@H](CC(C)C)N(C)C(=O)C[C@@H](C(=O)N2CCOCC2)N(C)C(=O)[C@H](C2CCCC2)N(C)C(=O)C2(CCCC2)NC(=O)[C@@H]2CCCN2C(=O)[C@H](CCc2ccc(Cl)c(Cl)c2)NC(=O)CN(C)C(=O)[C@H](Cc2ccc(C(F)(F)F)cc2)N(CC)C(=O)CN(C)C(=O)CN(C)C1=O [PP0237] ([NMeL]I[Sar][Sar][NEtPhe(4-CF3)][Sar][hPhe(3,4-Cl2)]P[Ac5c][NMeGly(cPent)][NMeD]-Morpholide; lactam N-11)
[1]; KD ratio NRAS/KRAS
  NRAS/KRAS (ratio of KD for GDP-bound NRAS wild-type to KD for KRAS): B (a compound having 3 or more and less than 10 is denoted as B)
[2]; KD ratio HRAS/KRAS
  HRAS/KRAS (ratio of KD for GDP-bound HRAS wild-type to KD for KRAS): C (A compound having a KD ratio of 0.1 or more and less than 3 is denoted as C)

## CCO[C@@H]1C[C@H]2C(=O)NC3(CC(C)(C)C3)C(=O)N(C)[C@@H](C(CC)CC)C(=O)N(C)[C@H](C3CCC3)CC(=O)N(C)[C@@H](CC3CC3)C(=O)N[C@@H]([C@@H](C)CC)C(=O)N(C)CC(=O)N(C)[C@H]3C/C=C\CCN(C3=O)[C@@H](Cc3ccc(C(F)(F)F)cc3)C(=O)N(C)CC(=O)N[C@@H](CCc3cc(F)c(C(F)(F)F)c(F)c3)C(=O)N2C1 [PP1634]
[1]; KD ratio, GDP-bound NRAS wild-type vs GDP-bound KRAS wild-type
  NRAS/KRAS (ratio of KD value for NRAS to KD value for KRAS): A (a compound having 10 or more and less than 20 is denoted as A)
[2]; KD ratio, GDP-bound HRAS wild-type vs GDP-bound KRAS wild-type
  HRAS/KRAS (ratio of KD value for HRAS to KD value for KRAS): A (a compound having 10 or more and less than 20 is denoted as A)

## CCO[C@@H]1C[C@H]2C(=O)NC3(CCC3)C(=O)N(C)[C@@H](C3CCCC3)C(=O)N(C)[C@H](C(=O)N3CCOCC3)CC(=O)N(C)[C@@H](CC(C)C)C(=O)N[C@@H]([C@@H](C)CC)C(=O)N(C)CC(=O)N(C)[C@H]3CCCCN(C3=O)[C@@H](Cc3ccc(C(F)(F)F)cc3)C(=O)N(C)CC(=O)N[C@@H](CCc3cc(F)c(C(F)(F)F)c(F)c3)C(=O)N2C1 [PP0578]
[1]; KD ratio NRAS/KRAS
  NRAS/KRAS (ratio of KD value with respect to GDP-bound NRAS wild-type protein to KD value with respect to KRAS): B (a compound having 3 or more and less than 10 is denoted as B)
[2]; KD ratio HRAS/KRAS
  HRAS/KRAS (ratio of KD value with respect to GDP-bound HRAS wild-type protein to KD value with respect to KRAS): B (a compound having 3 or more and less than 10 is denoted as B)

## CCO[C@@H]1C[C@H]2C(=O)NC3(CC(C)(C)C3)C(=O)N(C)[C@@H](C(CC)CC)C(=O)N(C)[C@H](C(=O)N(C)C)CC(=O)N(C)[C@@H](CC3CC3)C(=O)N[C@@H]([C@@H](C)CC)C(=O)N(C)CC(=O)N(C)[C@H]3C/C=C\CCN(C3=O)[C@@H](CC3CCC(F)(F)CC3)C(=O)N(C)CC(=O)N[C@@H](CCc3ccc(C(F)(F)F)c(OC)c3)C(=O)N2C1 [PP2480]
[1]; [3]
  NRAS/KRAS (ratio of KD value with respect to NRAS to KD value with respect to KRAS): A (a compound having 10 or more and less than 20 is denoted as A)
[2]; [4]
  HRAS/KRAS (ratio of KD value with respect to HRAS to KD value with respect to KRAS): A (a compound having 10 or more and less than 20 is denoted as A)
